Like-named read-outs stand apart in the source and are kept apart here.

The source of these data is patent US20240067651A1 (Biohaven Therapeutics Ltd., priority 2019, published 2024).

Data set [1] in a line: Stability in Simulated Intestinal Fluid (SIF). The class given is in vitro ADME. More on the design: key: % parent compound remaining relative to 0-minute sample. The essentials: (§1)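 Compound at 2 μg/mL final was incubated at 37° C with orbital shaking in SGF containing pepsin (pH 1.2) or SIF containing pancreatin (pH 6.8), sampled from 0 to 60 minutes. Parent remaining was measured by LC-MS/MS relative to the 0-minute sample; half-life came from ln(% remaining) versus time when enough points existed.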

The subject of a further data set is Caco-2 monolayer. The experiment in a line: Caco-2 Permeability Assay. The class given is in vitro ADME, human. The essentials: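 Caco-2 monolayers cultured 21 days (TEER >600 […]); test article at 10 μM in HBSS/HEPES pH 7.4 transport medium, dosed apical or basolateral, ±Pgp inhibitor. Incubated 90 min at 37 °C; both compartments quantified by LC-MS/MS. Papp (A→B, B→A), efflux ratio and % recovery calculated.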

A short description of data set [2]: Stability in Simulated Gastric Fluid (SGF). The class given is in vitro ADME. Further details: key: % parent compound remaining relative to 0-minute sample. The essentials:
as §1

The next data set in a line: Plasma Stability. The class given is in vitro ADME, human. The gist of the method: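 Compounds incubated at 1 μM in fresh human plasma for 1 hour at 37° C, then protein-precipitated with acetonitrile/formic acid containing internal standard. Remaining parent measured by LC-MS/MS in triplicate, expressed as percent of control remaining.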
The mark [3] stands for this setting: % remaining at 1 h in simulated intestinal fluid.
Where [4] appears, read: % remaining at 1 h in simulated gastric fluid.
Setting [5] is: % remaining at 1 h in human plasma.
[6] abbreviates: simulated intestinal fluid, remaining at 1 h.
The mark [7] stands for this setting: simulated gastric fluid, remaining at 1 h.
Where [8] appears, read: bare number, unit or time not given, the 15th table Examples 204-207.
Where [9] appears, read: % remaining after 1 h in simulated intestinal fluid.
[10] abbreviates: % remaining after 1 h in simulated gastric fluid.
The mark [11] stands for this setting: % remaining after 1 h in human plasma.

With `CC(C)OCCn1c(SCOC(=O)CCCCOC(=O)CNC(=O)OC(C)(C)C)nc(=O)c2c1ccn2COC(=O)CCCCOC(=O)CNC(=O)OC(C)(C)C` [Example 329, ({5-[{{5-[(2-{[(tert-butoxy)carbonyl]amino}acetyl)oxy]pentanoyl}oxy)methyl]-4-oxo-1-[2-(propan-2-yloxy)ethyl]-1H,4H,5H-pyrrolo[3,2-d]pyrimidin-2-yl}sulfanyl)methyl 5-[(2-{[(tert-butoxy)carbonyl]amino}acetyl)oxy] pentanoate], in data set [1] (% remaining @ 1 h), the SIF is on record as 35% @ 1 h. The “Caco-2 Papp” value in the data set with Caco-2 monolayer came out at 5.96 ×10⁻⁶ cm/s. The SGF in data set [2] (% remaining @ 1 h) is 95% @ 1 h. Further, in “Plasma Stability” (% remaining @ 1 h), the “human Plasma stability” value is 1% @ 1 h.
On to `CC(C)OCCn1c(=S)[nH]c(=O)c2c1ccn2COC(=O)CCCCNC(=O)[C@@H](N)CCc1ccccc1.O=C(O)C(F)(F)F` [Example 24, trifluoroacetic acid {4-oxo-1-[2-(propan-2-yloxy)ethyl]-2-sulfanylidene-1H,2H,3H,4H,5H-pyrrolo [3,2-d]pyrimidin-5-yl} methyl 5-[(2S)-2-amino-4-phenylbutanamido]pentanoate], for which the SIF in data set [1] (setting [3]) is 76% remaining. Further, the “Caco-2 Papp” value in the data set with Caco-2 monolayer (Caco-2 monolayer) was 0.302 ×10⁻⁶ cm/s. The SGF in data set [2] (setting [4]) is 99% remaining. Moreover, the “human Plasma stability” value in the data set “Plasma Stability” (setting [5]) was found to be 1% remaining.
Regarding “1-tert-butyl 2-{4-oxo-1-[2-(propan-2-yloxy)ethyl]-2-sulfanylidene-1H,2H,3H,4H,5H-pyrrolo[3,2-d]pyrimidin-5-yl}methyl (2R)-pyrrolidine-1,2-dicarboxylate [Example 393]”, the SIF in data set [1] (setting [6]) is 94% remaining. Also, the “Caco-2 Papp” value in the data set on Caco-2 monolayer (Caco-2 monolayer) was found to be 0.11 ×10⁻⁶ cm/s. Besides, the SGF in data set [2] (setting [7]) is given as 99% remaining. In addition, in the data set “Plasma Stability” (human plasma, remaining at 1 h), the “human Plasma stability” value stood at 92% remaining.
For “5-{[({2-[2-(2-{[(tert-butoxy)carbonyl]amino}ethoxy)eth-oxy]ethoxy}carbonyl)oxy]methyl}-1-[2-(propan-2-yloxy)ethyl]-2-sulfanylidene-1H,2H,3H,4H,5H-pyrrolo[3,2-d]pyrimidin-4-one [Example 370]” the same measures were 35% remaining, 1.54 ×10⁻⁶ cm/s, 99% remaining and 1% remaining.
Turning to `CCCCN(C)C(=O)OCSc1nc(=O)c2c(ccn2COC(=O)N(C)CCCC)n1CCOC(C)C` [Example 162, {2-[{{[butyl(methyl)carba-moyl]oxy}methyl)sulfanyl]-4-oxo-1-[2-(propan-2-yloxy)ethyl]-1H,4H,5H-pyrrolo[3,2-d]pyrimidin-5-yl}methyl N-butyl-N-methylcarbamate], in data set [1] (% @ 1 h (remaining) in simulated intestinal fluid), the SIF is listed as 96% @ 1 h. The “Caco-2 Papp” value with Caco-2 monolayer (Caco-2 monolayer) is 28.7 ×10⁻⁶ cm/s. Besides, the SGF in data set [2] (% @ 1 h (remaining) in simulated gastric fluid) is listed as 98% @ 1 h. Also, the “human Plasma stability” value in the data set “Plasma Stability” (% @ 1 h (remaining) in human plasma) came out at 96% @ 1 h.
For `CCCCCCCCOC(=O)OCSc1nc(=O)c2c(ccn2COC(=O)OCCCCCCCC)n1CCOC(C)C` [Example 207, octyl {2-[{{[(octyloxy)carbon-yl]oxy}methyl)sulfanyl]-4-oxo-1-[2-(propan-2-yloxy)ethyl]-1H,4H,5H-pyrrolo[3,2-d]pyrimidin-5-yl} methyl carbonate], the SIF in data set [1] (setting [8]) is 29. In the data set on Caco-2 monolayer (Caco-2 monolayer, the 15th table), the “Caco-2 Papp” value amounted to 0.267 ×10⁻⁶ cm/s. In data set [2] (setting [8]), the SGF is 90. In the data set “Plasma Stability” (% remaining at 1 h in human plasma, the 15th table), the “human Plasma stability” value stood at 92% remaining.
As for “{4-oxo-1-[2-(propan-2-yloxy)ethyl]-2-sulfanylidene-1H,2H,3H,4H,5H-pyrrolo[3,2-d]pyrimidin-5-yl}methyl 2-[2-(2-{[(tert-butoxy)carbonyl]amino}acetamido)-N-methylacetamido]acetate [Example 407]”, the SIF in data set [1] (setting [9]) is reported as 1% remaining. In addition, the “Caco-2 Papp” value in the data set on Caco-2 monolayer (Caco-2 monolayer) worked out at 14.6 ×10⁻⁶ cm/s. Moreover, the SGF in data set [2] (setting [10]) is recorded as 98% remaining. Also, the “human Plasma stability” value in the data set “Plasma Stability” (setting [11]) amounted to 0% remaining.
In the case of `CC(C)OCCn1c(=S)[nH]c(=O)c2c1ccn2C(C)OC(=O)OC(C)C` (stereo not shown) [Example 92, 1-{4-oxo-1-[2-(propan-2-yloxy)ethyl]-2-sulfanylidene-1H,2H,3H,4H,5H-pyrrolo[3,2-d]pyrimidin-5-yl}ethyl propan-2-yl carbonate], the SIF in data set [1] (% remaining at 1 h, SIF with pancreatin pH 6.8, 2 μg/mL, 37° C.) was 74% remaining. Besides, the “Caco-2 Papp” value with Caco-2 monolayer (donor 10 μM, 90 minutes, 37° C., direction not given) is given as “unstable”. Moreover, the SGF in data set [2] (% remaining at 1 h, SGF with pepsin pH 1.2, 2 μg/mL, 37° C.) is 1% remaining. Moreover, the “human Plasma stability” value in the data set “Plasma Stability” (% remaining at 1 h, human plasma, 1 μM, 37° C.) was 0% remaining.
Regarding `CC(C)OCCn1c(=S)[nH]c(=O)c2c1ccn2COC(=O)CCCCNC(=O)[C@@H]1CCC(=O)N1C(=O)OCc1ccccc1.O=C(O)C(F)(F)F` [Example 16, trifluoroacetic acid benzyl (5S)-2-oxo-5-{[5-oxo-5-({4-oxo-1-[2-(propan-2-yloxy)ethyl]-2-sulfanylidene-1H,2H,3H,4H,5H-pyrrolo[3,2-d]pyrimidin-5-yl}methoxy)pentyl]carbamoyl} pyrrolidine-1-carboxylate], in data set [1] (setting [3]), the SIF was 93% remaining. Moreover, the “Caco-2 Papp” value with Caco-2 monolayer (Caco-2 monolayer) came out at 0.903 ×10⁻⁶ cm/s. The SGF in data set [2] (setting [4]) is 96% remaining. For the same molecule, the “human Plasma stability” value in “Plasma Stability” (setting [5]) amounted to 21% remaining.
For “trifluoroacetic acid {4-oxo-1-[2-(propan-2-yloxy)ethyl]-2-sulfanylidene-1H,2H,3H,4H,5H-pyrrolo[3,2-d]pyrimidin-5-yl}methyl (2R)-1-[2-(2-aminoacetamido)acetyl]pyrrolidine-2-carboxylate [Example 406]”, in data set [1] (setting [9]), the SIF is 71% remaining. Moreover, the “Caco-2 Papp” value in the data set with Caco-2 monolayer (Caco-2 monolayer) is 3.42 ×10⁻⁶ cm/s. The SGF in data set [2] (setting [10]) is on record as 88% remaining. The “human Plasma stability” value in “Plasma Stability” (setting [11]) came out at 0% remaining.
For the molecule `CC(C)C[C@H](NC(=O)OC(C)(C)C)C(=O)OCCCCC(=O)OCn1c(=O)c2c(ccn2COC(=O)CCCCOC(=O)[C@H](CC(C)C)NC(=O)OC(C)(C)C)n(CCOC(C)C)c1=S` [Example 344, 5-[(3-{[(5-{[(2S)-2-{[(tert-butoxy)carbonyl]amino}-4-methylpentanoyl]oxy}penta-noyl)oxy]methyl}-4-oxo-1-[2-(propan-2-yloxy)ethyl]-2-sulfanylidene-1H,2H,3H,4H,5H-pyrrolo[3,2-d]pyrimidin-5-yl)methoxy]-5-oxopentyl (2S)-2-{[(tert-butoxy)carbonyl]amino}-4-methylpentanoate], the SIF in data set [1] (% remaining @ 1 h) is 26% remaining. Besides, the “Caco-2 Papp” value in the data set on Caco-2 monolayer (Caco-2) was found to be 2.46 ×10⁻⁶ cm/s. For the same molecule, in data set [2] (% remaining @ 1 h), the SGF is on record as 100% remaining. Also, the “human Plasma stability” value in the data set “Plasma Stability” (% remaining @ 1 h) came to 28% remaining.
As to “{4-oxo-1-[2-(propan-2-yloxy)ethyl]-2-sulfanylidene-1H,2H,3H,4H,5H-pyrrolo[3,2-d]pyrimidin-5-yl}methyl (2R)-2-{[(tert-butoxy)carbonyl]amino}propanoate [Example 291]”, the SIF in data set [1] (% remaining @ 1 h) is reported as 30% @ 1 h. Further, the “Caco-2 Papp” value in the data set on Caco-2 monolayer amounted to 21.9 ×10⁻⁶ cm/s. The SGF in data set [2] (% remaining @ 1 h) was 66% @ 1 h. Also, in “Plasma Stability” (% remaining @ 1 h), the “human Plasma stability” value came out at 0% @ 1 h.
Turning to “15-[2-(propan-2-yloxy)ethyl]-14-sulfanylidene-3,5,9,11-tetraoxa-1,13,15-triazatricyclo[11.5.2.0^{16,19}]icosa 16(19),17-diene-4,10,20-trione [Example 409]”, in data set [1] (setting [9]), the SIF is recorded as 28% remaining. Also, in the data set with Caco-2 monolayer (Caco-2 monolayer), the “Caco-2 Papp” value is less than 0.107 ×10⁻⁶ cm/s. For the same molecule, in data set [2] (setting [10]), the SGF was 94% remaining. Moreover, the “human Plasma stability” value in “Plasma Stability” (setting [11]) amounted to 4% remaining.
